Assay results published in patent US20080051351A1, “Substances, Compositions, and Methods for Treating Alopecia” (priority 2005, published 2008).

System: testosterone 5α-reductase
Experiment: Testosterone 5α-reductase micro radioassay (crude nuclear fraction of ventral prostate)
Format: biochemical
Conditions: 0.1 mg/ml 17-alpha-estradiol, with or without 20 μg/ml UL-OHA; 37° C., 1 hour
Experimental: The effect of UL-OHA on inhibiting increase in testosterone 5α-reductase activity can be verified with a micro radioassay.
Biopsies of ventral prostate homogenized with 9 volumes of 0.1 M PBS are filtered through gauze and centrifuged at 3000 rpm for 10 minutes to obtain a crude nuclear fraction. The supernatant is discarded and the pellet resuspended in PBS. This process is repeated once again and the second suspension is used as enzyme solution for the assay.
1 mCi of [4-^14C] testosterone with 17-alpha-estradiol+UL-OHA (calculated for a final conc. of 0.1 mg/ml and 20 μg/ml respectively) and 17-alpha-estradiol (final conc. 0.1 mg/ml) are placed in test tubes and heated to dryness under nitrogen flow. 10 μl of 50 mM NADPH, 60 μl of PBS and 30 μl of testosterone 5α-reductase solution are added and the test tubes and incubated at 37° C. for 1 hour. Finally 0.4 ml of chloroform:methanol (1:2 v/v) are added in order to terminate the reaction and the mixture is centrifuged at 3000 rpm for 10 minutes. […]
The radioactive activity of each extract based on the resulting quantity of testosterone, 5α-dihydro-testosterone, 5α-androstan-3α,17β-diol and 5α-androstan-3β,17β-diol is measured by reading the intensity of isotope emission from the plates as described by Hamada K et al. (IFSCC Magazine 4(2):83-87, 2001). […]

C[C@]12CC[C@@H]3c4ccc(O)cc4CC[C@H]3[C@@H]1CC[C@H]2O [17-alpha-estradiol]
Percentage inhibition of testosterone conversion relative to the control (anti-androgenic activity): 20%
